pEC50: −log10 of the molar value.
Molecular target: T1, CD80-CD28 interaction (Homo sapiens, UniProt P33681)
T1 sequence (P33681 35-242 limits assumed): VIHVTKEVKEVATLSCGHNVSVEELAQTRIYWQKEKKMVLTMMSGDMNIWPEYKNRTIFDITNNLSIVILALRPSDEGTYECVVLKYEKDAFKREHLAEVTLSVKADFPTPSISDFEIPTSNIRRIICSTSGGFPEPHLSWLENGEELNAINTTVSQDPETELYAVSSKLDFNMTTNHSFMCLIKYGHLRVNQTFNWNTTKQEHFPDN
Assay: cell free Homogenous Time Resolved Fluorescence (TRFret) assay, inhibition of the CD80-CD28 interaction
Assay type: binding
Details: HTRF assay; concentration series 100 μM-1.7 nM; 4 hours at room temperature
Description: The examples described above were tested in a cell free Homogenous Time Resolved Fluorescence (TRFret) assay to determine their activity as inhibitors of the CD80-CD28 interaction.
In the assay, europium and allophycocyanin (APC) are associated with CD28 and CD80 indirectly (through antibody linkers) to form a complex, which brings the europium and APC into close proximity to generate a signal. The complex comprises the following six proteins: fluorescent label 1, linker antibody 1, CD28 fusion protein, CD80 fusion protein, linker antibody 2, and fluorescent label 2. The table below describes these reagents in greater detail.
On formation of the complex, europium and APC are brought into proximity and a signal is generated.
Non-specific interaction was measured by substituting a mouse Fab fragment (C215) for the CD80 mouse Fab fragment fusion protein (1.9 μg/ml). The assay was carried out in black 384 well plates in a final volume of 30 μl. Assay buffer: 50 mM Tris-HCl, 150 mM NaCl pH7.8, containing 0.1% BSA (w/v) added just prior to use.
Compounds were added to the above reagents in a concentration series ranging between 100 μM-1.7 nM. The reaction was incubated for 4 hours at room temperature. Dual measurements were made using a Wallac Victor 1420 Multilabel Counter. First measurement: excitation 340 nm, emission 665 nm, delay 50 μs, window time 200 μs. second measurement: excitation 340 nm, emission 615 nm, delay 50 μs, window time 200 μs. Counts were automatically corrected for fluorescence crossover, quenching and background.

SMILES | pEC50
O=C(O)c1ccc(-n2[nH]c3c4c(nnc3c2=O)CCCC4)cc1 [Example 1] | < 5.00
O=C(NCCCNC1CCCCC1)c1ccc(-n2[nH]c3c4c(nnc3c2=O)CCCC4)cc1 [Example 4, N-(3-Cyclohexylamino-propyl)-4-(3-oxo-1 ,3,6,7,8,9-hexahydro-pyrazolo[4,3-c]cinnolin-2-yl)-benzamide] | 7.00
O=C(NCCCCN1CCCC1)c1ccc(-n2[nH]c3c4c(nnc3c2=O)CCCC4)cc1 [Example 5, 4-(3-Oxo-1,3,6,7,8,9-hexahydro-pyrazolo[4,3-c]cinnolin-2-yl)-N-(4-pyrrolidin-1-yl-butyl)-benzamide] | 7.22

Continued by rising pEC50, values first:

pEC50 | SMILES
6.10 | O=C(NCC(F)F)c1ccc(-n2[nH]c3c4c(nnc3c2=O)CCCC4)cc1 [Example 3, N-(2,2-Difluoro-ethyl)-4-(3-oxo-1 ,3,6,7,8,9-hexahydro-pyrazolo[4,3-c]cinnolin-2-yl)-benzamide]
7.03 | CN1C(C)(C)CC(NC(=O)c2ccc(-n3[nH]c4c5c(nnc4c3=O)CCCC5)cc2)CC1(C)C [Example 6, 4-(3-Oxo-1,3,6,7,8,9-hexahydro-pyrazolo[4,3-c]cinnolin-2-yl)-N-(1,2,2,6,6-pentamethyl-piperidin-4-yl)-benzamide]
7.20 | CN(C)CCCNC(=O)c1ccc(-n2[nH]c3c4c(nnc3c2=O)CCCC4)cc1 [Example 2, N-(3-Dimethylamino-propyl)-4-(3-oxo-1,3,6,7,8,9-hexahydro-pyrazolo[4,3-c]cinnolin-2-yl)-benzamide]
